# Measured values taken from the supplement of paper PMC10307832.
# Legend:
# Experiment in all cases: relative viability (nuclei count vs DMSO), 5 days (fraction); higher = more cells survive
# [1] = compound: CN(c1ncccc1CNc1nc(Nc2ccc3c(c2)CC(=O)N3)ncc1C(F)(F)F)S(C)(=O)=O
# How it was run: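 On vehicle-anchored 1536-well plates, lung cancer cell lines held overnight at 37 °C were pinned with five library-drug doses (not always all listed) spaced by √10. With no medium change over 5 days, they were then fixed, permeabilised and Hoechst-stained in one step and imaged at 4×. MetaXpress counted nuclei, and viability is the median across plates of treated-well over vehicle-well nuclei. Acceptance needed control CV below 25% and at least one doubling.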
# [2] = compound: CN(c1ncccc1CNc1nc(Nc2ccc3c(c2)CC(=O)N3)ncc1C(F)(F)F)S(C)(=O)=O + CC(=O)Nc1cccc(-n2c(=O)n(C3CC3)c(=O)c3c(Nc4ccc(I)cc4F)n(C)c(=O)c(C)c32)c1 [Trametinib] (partner 0.02 µM)
# How it was run: (§1)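 Nuclei were stained with Hoechst during a one-step fixation (final 0.05% Triton X-100, 1% formaldehyde, 1 ug/ml Hoechst) carried out 5 days after dosing, then counted on 4× images. The cells, lung cancer lines in 1536-well plates, had been dosed by pin tool the day after seeding with one drug alone or a fixed anchor-drug dose plus five library-drug doses (not always all listed) in √10 steps. Relative viability is the nuclei count in treated wells divided by that in vehicle wells, and each value is the median of duplicate plates.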
# [3] = compound: CN(c1ncccc1CNc1nc(Nc2ccc3c(c2)CC(=O)N3)ncc1C(F)(F)F)S(C)(=O)=O + Cc1cc(Nc2cc(N3CCN(C)CC3)nc(Sc3ccc(NC(=O)C4CC4)cc3)n2)n[nH]1 [Tozasertib] (partner 0.1 µM)
# How it was run: as §1
# [4] = compound: CN(c1ncccc1CNc1nc(Nc2ccc3c(c2)CC(=O)N3)ncc1C(F)(F)F)S(C)(=O)=O + NC(=O)Nc1cc(-c2cccc(F)c2)sc1C(=O)N[C@H]1CCCNC1 [AZD7762] (partner 0.2 µM)
# How it was run: as §1
Cell Line,relative viability ([1]; 0.01 µM),relative viability ([1]; 0.03162 µM),relative viability ([1]; 0.1 µM),relative viability ([1]; 0.3162 µM),relative viability ([1]; 1 µM),relative viability ([2]; first compound 0.01 µM),relative viability ([2]; first compound 0.03162 µM),relative viability ([2]; first compound 0.1 µM),relative viability ([2]; first compound 0.3162 µM),relative viability ([2]; first compound 1 µM),relative viability ([3]; first compound 0.01 µM),relative viability ([3]; first compound 0.03162 µM),relative viability ([3]; first compound 0.1 µM),relative viability ([3]; first compound 0.3162 µM),relative viability ([3]; first compound 1 µM),relative viability ([4]; first compound 0.01 µM),relative viability ([4]; first compound 0.03162 µM),relative viability ([4]; first compound 0.1 µM),relative viability ([4]; first compound 0.3162 µM),relative viability ([4]; first compound 1 µM)
LK-2,1.05,1.24,1.03,1.08,1.1,0.897,0.973,0.679,0.73,0.601,0.201,0.163,0.174,0.169,0.182,0.542,0.517,0.413,0.434,0.397
NCI-H1993,0.855,0.99,0.855,0.925,0.821,0.481,0.547,0.669,0.409,0.585,0.528,0.615,0.659,0.595,0.551,0.852,0.837,0.836,0.634,0.737
NCI-H838,1.01,1.03,0.979,0.903,0.808,0.534,0.695,0.501,0.421,0.329,0.27,0.336,0.261,0.272,0.19,0.994,0.955,0.964,0.861,0.933
NCI-H1437,0.994,1.02,0.946,0.936,0.877,0.529,0.575,0.415,0.356,0.395,0.424,0.483,0.397,0.411,0.355,1.12,1.17,1.15,1.08,1.07
NCI-H2170,0.962,1.13,1,0.965,0.981,0.964,0.906,0.895,0.956,0.94,0.741,0.691,0.679,0.649,0.716,0.942,1.02,0.794,0.96,0.914
SW 900,1.03,0.961,0.791,0.867,0.753,0.846,0.726,0.761,0.757,0.739,0.547,0.629,0.543,0.495,0.446,0.579,0.688,0.784,0.594,0.733
LCLC-103H,0.964,0.966,0.877,0.919,0.958,0.674,0.687,0.675,0.704,0.673,0.469,0.457,0.414,0.415,0.466,0.72,0.711,0.734,0.745,0.815
NCI-H441,1.09,1.15,0.901,1.22,0.767,0.457,0.461,0.402,0.336,0.403,0.697,0.628,0.581,0.583,0.512,1.07,1.11,1.04,1.18,1.22
BEN,1.05,1.06,1.03,1,1.02,0.954,1.19,0.92,1.02,0.869,0.416,0.562,0.506,0.541,0.471,0.721,0.709,0.73,0.774,0.563
LC-2-ad,1.01,1.01,0.966,0.883,0.967,0.876,0.932,0.926,0.905,0.793,0.417,0.433,0.546,0.426,0.442,0.864,0.808,0.892,0.768,0.811
RERF-LC-KJ,0.986,1.16,1.03,0.989,1.01,0.76,0.905,0.949,0.904,0.937,0.468,0.466,0.467,0.514,0.348,0.89,1.08,1.03,1.04,1.07
NCI-H522,0.916,0.918,0.996,1,1.02,0.73,0.813,0.698,0.812,0.705,0.542,0.447,0.469,0.511,0.61,0.798,0.979,0.737,0.87,0.764
NCI-H1915,0.992,1,0.965,0.995,0.991,0.288,0.293,0.293,0.315,0.29,0.488,0.488,0.462,0.424,0.373,0.762,0.654,0.696,0.703,0.76
NCI-H596,0.977,0.917,1.02,0.886,0.94,0.932,0.779,0.559,0.781,0.728,0.886,0.938,0.899,0.813,0.632,0.999,1.1,0.948,1.05,1.05
NCI-H2126,1,1,0.911,0.964,0.872,0.51,0.65,0.483,0.591,0.537,0.793,0.91,0.85,0.787,0.714,1.03,1.08,0.961,0.904,0.902
